pIC50: −log10 of the molar value.

A word on the pIC50: it is the negative decadic logarithm of the IC50, by convention in mol/L.

Experiment [1] has as its system eIF4A-dependent translation. Kind of experiment: in vitro translation assay, bicistronic FF/HCV/Ren reporter mRNA in Krebs-2 extracts. The class given is biochemical. Particulars: for pIC50: bicistronic FF/HCV/Ren mRNA, FIG. 14/15, read-out: IC50, inhibition of cap-dependent translation (FF relative to REN); for inhibition of cap-dependent translation in vitro (in words): screen at 2 μM compound. Here is the method: Structure-Activity Relationships. With a number of amidino-rocaglates and amino-rocaglates in hand, we evaluated their inhibition of eIF4A-dependent translation using an in vitro assay as depicted in FIG. 14, where a bicistronic reporter mRNA was designed for translation in Krebs-2 extracts. In FIG. 14 the following description applies (a) IC50 was determined from fitted sigmoid curves; […] indicates the concentration of compound that inhibits cap-dependent translation by 50%, which was normalized by cap-independent translation. For its determination, the bicistronic reporter FF/HCV/Ren mRNA was used to produce Firefly luciferase (cap-dependent) and Renilla luciferase (cap-independent) in Krebs-2 extracts in the presence of indicated compounds at various concentrations. In particular, translation of Firefly luciferase (FF) is cap-dependent and depends on eIF4A activity; in contrast, translation of Renilla luciferase (REN) utilizes the HCV internal ribosome entry site (IRES) which functions independently of eIF4A. IC50's were determined by the inhibition of FF relative to REN obtained in the presence of compound relative to vehicle controls and normalized to REN as an internal control. […] In accordance with the eIF4A-RNA-rocaglamide (2) co-crystallographic analysis (FIG. 4), the amide carbonyl of 2 interacts with Gln195 of eIF4A as a H-bond acceptor, while the tertiary hydroxyl of 2 serves as a H-bond donor to an RNA base. […] To further verify the hypothesis, amidino-rocaglates (pKa of N—H˜26.7-30.7 in DMSO, strong H-bond donors) and amino-rocaglates (pKa of N—H˜36 to 44 in DMSO, weak H-bond donors) were next evaluated. […] Conversely, benzyl amidine 9e had IC50=60 nM, whereas the methylene tether may allow conformational adjustment to avoid rigid repulsion in the binding pocket.
The rocaglate collection was also tested in in vitro translation assays using cell-free extracts with a previously described bicistronic mRNA containing the HCV IRES, which is not dependent on eIF4A activity and served as an internal control (FIG. 19C).
In Vitro Translation Assays. In vitro translation assays performed in Krebs-2 cell extracts were supplemented with 5 mM MgCl2, 30 mM Tris-HCl (pH 7.5), 1.5 mM ATP, 0.1 mM GTP, 0.6 mM CTP, 10 mM dipotassium creatine phosphate, 80 μg/mL creatine kinase, and 0.04 mM amino acids. The specified mRNA reporters were added to each reaction at a final concentration of 10 ng/μL. The translation reactions were incubated with or without compound for 60 minutes at 30° C. prior to the measurement of luciferase activities.
(§1) FIGS. 19A-19C. Rocaglate activity profiling. 19A. Assessing eIF4A1:poly r(AG)8 (SEQ ID NO: 2) RNA binding by FP in the presence of 10 μM rocaglate. Values are expressed relative to vehicle controls and data is rank ordered. n=3±SD. 19B. The change in polarization obtained with eIF4A1:poly r(AG)8 (SEQ ID NO: 2) and eIF4A2:poly r(AG)8 (SEQ ID NO: 2) RNA. Pearson r=0.814; p<0.0001. 19C. Inhibition of cap-dependent translation by rocaglates was measured using the indicated mRNA bicistronic reporter (4 ng/ul) in Krebs-2 extracts at a final compound concentration of 2 μM. n=3±SD.
FIG. 35A-35E are plots showing dose-response curve of FF-HCV-Ren mRNA translation in Krebs extracts with IC50s shown for inhibition of cap-dependent protein synthesis. Values are plotted relative to DMSO controls. n=2 technical replicates performed in duplicate.

Another experiment deals with T1, eIF4A1:poly r(AG)8 RNA (Homo sapiens, UniProt P60842).
T1 construct: His6 (N); made in house; host or cells: E. coli BL21 (DE3)
T1 sequence (P60842 whole entry, species assumed): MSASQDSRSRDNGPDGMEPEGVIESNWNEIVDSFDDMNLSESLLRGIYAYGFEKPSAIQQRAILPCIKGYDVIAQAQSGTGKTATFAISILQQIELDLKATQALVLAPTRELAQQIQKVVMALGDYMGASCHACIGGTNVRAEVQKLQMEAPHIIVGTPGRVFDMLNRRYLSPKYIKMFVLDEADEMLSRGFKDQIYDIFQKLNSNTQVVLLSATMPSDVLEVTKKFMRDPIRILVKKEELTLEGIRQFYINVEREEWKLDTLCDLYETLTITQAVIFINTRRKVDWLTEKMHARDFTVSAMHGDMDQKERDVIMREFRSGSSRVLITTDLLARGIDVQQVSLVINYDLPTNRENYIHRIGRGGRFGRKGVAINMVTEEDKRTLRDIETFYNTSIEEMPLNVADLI
Kind of experiment: fluorescence polarization (FP) assay, eIF4A1 binding to FAM-labelled RNA. Particulars: 500 nM eIF4A1, 10 nM FAM-labelled RNA, screen at 10 μM compound.
Excerpt: Rocaglates similarly enhance RNA binding of eIF4A1 and eIF4A2. In order to rapidly evaluate the ability of rocaglates to stimulate binding of eIF4A to RNA, a fluorescence polarization (FP) assay using a FAM (fluorescein amidite)-labelled RNA probe (FIG. 18A) was used. […] Due to the high degree of shared amino acid identity between the two paralogs, their apparent similarity with respect to RNA binding activity and response to CR-1-31-B (23), and the fact that eIF4A1 is essential but eIF4A2 is not, eIF4A1 was used in the majority of our subsequent experiments.
Fluorescence Polarization (FP) Assays. Unless otherwise specified, eIF4A (500 nM) was incubated with 10 nM FAM-labelled RNA for 30 min in FP buffer (14.4 mM HEPES-NaOH (pH 8), 108 mM NaCl, 1 mM MgCl2, 14.4% glycerol, 0.1% DMSO, 2 mM DTT, 1 mM AMPPNP) at room temperature in black low volume 384 well plates (Corning 3820). FP readings were performed on a Pherastar FS microplate reader (BMG Labtech).
as §1
FIG. 21. Assessing stimulation of eIF4A1:RNA binding by rocaglates and pateamine. FAM-labelled RNA was incubated in the presence of 500 nM eIF4A1 and the indicated concentrations of compound for 30 min, after which time FP measurements were taken. Limitations in WGD-57-591 availability prevented us from extending the titrations to 100 μM. The change in FP obtained relative to vehicle controls is presented. n=3±SD. FP results of competition assays in which preformed eIF4A1:rocaglate:FAM-poly r(AG)10 complexes were incubated in the presence of poly r(AG)10 (SEQ ID NO: 39) and dissociation measured as a function of time. n=3±SD.
(In fluorescence polarisation assays a small probe gives low polarisation when free and higher when bound to something large.)

As for `COC(=O)[C@@H]1[C@@H](c2ccccc2)[C@]2(c3ccc(OC)cc3)Oc3cc(OC)cc(OC)c3[C@@]23N=C(C)N[C@@]13O` [9b], in experiment [1], the negative logarithm of the IC50 (pIC50) is 6.72 and the “inhibition of cap-dependent translation in vitro (in words)” value was “comparable potency to SDS-1-021”.

For the compound `CONC(=O)[C@H]1[C@@H](O)[C@@]2(O)c3c(OC)cc(OC)cc3O[C@@]2(c2ccc(OC)cc2)[C@@H]1c1ccccc1` [CR-1-31-B], the negative-log IC50 (pIC50) in experiment [1] was 6.57. Also, the “stimulation of eIF4A1:RNA binding (in words)” value (shortened to “stimulation”) on eIF4A1:poly r(AG)8 RNA is “preferentially stimulated binding of eIF4A1 to RNA harboring polypurine bases”.

As to `COc1ccc([C@@]23Oc4cc(OC)cc(OC)c4[C@]2(O)[C@H](O)[C@H](C(=O)N(C)C)[C@H]3c2ccccc2)cc1` [RocA, rocaglamide A], at eIF4A1:poly r(AG)8 RNA, the “stimulation” value is listed as “activity similar to CR-1-31-B”.

Consider `COC(=O)[C@H]1[C@@H](O)[C@@]2(O)c3c(OC)cc(O[C@@H]4O[C@@H]([C@H](O)CO)CO[C@H]4OC)cc3O[C@@]2(c2ccc(OC)cc2)[C@@H]1c1ccccc1` [silvestrol], for which, in experiment [1], the “inhibition of cap-dependent translation in vitro (in words)” value was “potently inhibit cap-dependent translation”. In addition, the entries for the “stimulation” value at eIF4A1:poly r(AG)8 RNA and on eIF4A1:poly r(AG)8 RNA (listed as Silvestrol) were “less potent across the concentrations tested” and “relatively weak activity”, respectively.
